14 molecules from ChEMBL document CHEMBL1201862, “PubChem BioAssay data set” (2004) can be followed below.

Among the test systems are IGROV-1; SN12C; Malme-3M; CCRF-CEM; SK-MEL-28; K562; ACHN; SK-MEL-5; SK-MEL-2; SNB-19; HCT-15; A549; COLO 205; SF-268; UO-31; UACC-62.
Holding throughout (assay): growth of human tumour cells (NCI), 48 h

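1) Cells in 96-well plates. 2) Compound, 48 h, 5 concentrations. 3) Linear interpolation between surrounding doses. 4) Unreached endpoint = highest concentration. Here, GI50 denotes the concentration required for 50% inhibition of growth.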 Calls of active or inactive are those of the source. No stated cut-off is given here; in the data, active = GI50 up to about 1.1 µM and inactive = higher.

As to `Cn1cc2ccccc2c1-c1nc(F)nc(Oc2ccc3c(c2)CC[C@@H]2C3CC[C@]3(C)C(O)CCC23)n1` (stereo partly drawn), the GI50 was 13.7 µM (inactive) in the experiment on IGROV-1; 15.4 µM (inactive) in the experiment with SN12C; 18.3 µM (inactive) in the experiment with Malme-3M; 5.78 µM (inactive) in the experiment on CCRF-CEM; 16.3 µM (inactive) in the experiment with SK-MEL-28; 29.2 µM (inactive) in the experiment on K562. Moreover, the GI50 is 18.5 µM (inactive) with ACHN; 15 µM (inactive) with SK-MEL-5; 16.5 µM (inactive) with SK-MEL-2; 18.7 µM (inactive) in the experiment on SNB-19; 14.6 µM with HCT-15; 22.1 µM (inactive) in the experiment on A549. Besides, the values for the GI50 with COLO 205, in the experiment with SF-268 and in the experiment with UO-31 were 22.3 µM (inactive), 17.3 µM (inactive) and 21.7 µM (inactive), respectively.

Turning to `[O-][N+]1=C(c2ccccc2)COc2ccccc21`, the GI50 in the experiment on IGROV-1 is > 100 µM (inactive); in the experiment on SN12C, > 100 µM (inactive); with Malme-3M it was > 100 µM (inactive); with CCRF-CEM, 85.1 µM (inactive); in the experiment on SK-MEL-28 it was > 100 µM (inactive); in the experiment on K562, > 100 µM (inactive). For the same molecule, the GI50 in the experiment with ACHN is > 100 µM (inactive); with SK-MEL-5, > 100 µM (inactive); in the experiment on SK-MEL-2, > 100 µM (inactive); in the experiment with SNB-19 it was > 100 µM (inactive); with HCT-15, over 100 µM; in the experiment with UACC-62, > 100 µM (inactive). For the same molecule, the GI50 in the experiment with A549, in the experiment with COLO 205, in the experiment on SF-268 and in the experiment with UO-31 was > 100 µM (inactive) each time.

Consider `COc1cc2c(cc1O)CCN[C@@]21CS[C@H]2c3c(OC(C)=O)c(C)c4c(c3C(COC1=O)N1C2C2NC(Cc3cc(C)c(OC)c(O)c32)[C@@H]1C#N)OCO4` (stereo partly drawn), for which the GI50 in the experiment with IGROV-1, with SN12C, in the experiment with Malme-3M, in the experiment with CCRF-CEM, in the experiment on SK-MEL-28 and with K562 was < 0.01 µM (active) throughout. In addition, the GI50 in the experiment with ACHN was < 0.01 µM (active); in the experiment on SK-MEL-5, < 0.01 µM (active); in the experiment on SK-MEL-2, < 0.01 µM (active); with SNB-19, < 0.01 µM (active); in the experiment with HCT-15, under 0.01 µM; with UACC-62, < 0.01 µM (active). Also, the GI50 with A549, in the experiment on COLO 205, in the experiment on SF-268 and with UO-31 was < 0.01 µM (active) in each case.

Turning to `COC(=O)/C([Se]c1c(C)cc(C)cc1C)=C(\[Se]c1c(C)cc(C)cc1C)C(=O)OC`, the GI50 in the experiment on IGROV-1, in the experiment with SN12C, in the experiment with Malme-3M, in the experiment with CCRF-CEM, with K562 and in the experiment on ACHN was > 100 µM (inactive) throughout. Further, the GI50 in the experiment with SK-MEL-5 was > 100 µM (inactive); in the experiment with SK-MEL-2, > 100 µM (inactive); in the experiment with SNB-19, > 100 µM (inactive); in the experiment with HCT-15 it was over 100 µM; with UACC-62, > 100 µM (inactive); in the experiment with A549, > 100 µM (inactive). Also, the GI50 in the experiment on COLO 205, with SF-268 and in the experiment on UO-31 was > 100 µM (inactive) throughout.

As to `c1ccc(N2N=NC3C4CC(C5c6ccccc6C45)C32)cc1` (stereo not drawn), the GI50 is 56.8 µM (inactive) with IGROV-1; 33.6 µM (inactive) in the experiment on SN12C; 20.8 µM (inactive) in the experiment on Malme-3M; 14 µM (inactive) in the experiment on CCRF-CEM; 36.1 µM (inactive) with K562; 18.7 µM (inactive) in the experiment with SK-MEL-5. The GI50 in the experiment with SNB-19 was 69.5 µM (inactive); in the experiment on HCT-15, 31.3 µM; in the experiment with UACC-62, 28.1 µM (inactive); in the experiment with A549, 33.8 µM (inactive); in the experiment with COLO 205 it was 41.4 µM (inactive); in the experiment with SF-268 it was 34.8 µM (inactive). In addition, the GI50 in the experiment on UO-31 is 28.2 µM (inactive).

In the case of `NCC1(N2CCOCC2)C2CCCC21CO` (stereo not drawn), the GI50 in the experiment with IGROV-1, with SN12C, with Malme-3M, in the experiment on CCRF-CEM, in the experiment on SK-MEL-28 and with K562 was > 100 µM (inactive) each time. Further, the GI50 is > 100 µM (inactive) with ACHN; > 100 µM (inactive) in the experiment on SK-MEL-5; > 100 µM (inactive) in the experiment with SK-MEL-2; > 100 µM (inactive) in the experiment with SNB-19; over 100 µM with HCT-15; > 100 µM (inactive) in the experiment on A549. The GI50 in the experiment with COLO 205, in the experiment with SF-268 and in the experiment with UO-31 was > 100 µM (inactive) each time.

With `CC(C)(C)OC(=O)NC1CCCC1=O` (stereo not drawn), the GI50 with SN12C, in the experiment with Malme-3M, with CCRF-CEM, with SK-MEL-28, with K562 and with ACHN was > 100 µM (inactive) each time. The GI50 in the experiment on SK-MEL-5, in the experiment on SK-MEL-2, in the experiment on SNB-19, with UACC-62, with A549 and in the experiment on SF-268 was > 100 µM (inactive) each time. Further, the GI50 with UO-31 is > 100 µM (inactive).

As for `O=C1COc2cc3c(cc2N1)SCC(=O)N3`, the GI50 in the experiment on IGROV-1, with Malme-3M, with CCRF-CEM, in the experiment on SK-MEL-28, in the experiment with K562 and with SK-MEL-5 was > 100 µM (inactive) in each case. In addition, the GI50 in the experiment on SK-MEL-2, in the experiment with SNB-19, in the experiment on UACC-62, in the experiment with A549, with COLO 205 and in the experiment on SF-268 was > 100 µM (inactive) in each case. In addition, in the experiment on UO-31, the GI50 is > 100 µM (inactive).

In the case of `O=C(O)[C@H](NS(=O)(=O)c1ccc([N+](=O)[O-])cc1)c1ccccc1`, the GI50 in the experiment on IGROV-1, in the experiment with SN12C, in the experiment on Malme-3M, in the experiment on CCRF-CEM, in the experiment with SK-MEL-28 and with K562 was > 100 µM (inactive) each time. Moreover, the GI50 was > 100 µM (inactive) in the experiment on ACHN; > 100 µM (inactive) in the experiment with SK-MEL-5; > 100 µM (inactive) in the experiment with SK-MEL-2; > 100 µM (inactive) in the experiment on SNB-19; over 100 µM with HCT-15; > 100 µM (inactive) in the experiment with UACC-62. For the same molecule, the GI50 in the experiment with A549, in the experiment on COLO 205, in the experiment with SF-268 and in the experiment with UO-31 was > 100 µM (inactive) each time.

For the molecule `COC(=O)/C=C/C(=O)C1C(C(=O)OC)C2(C(=O)OC)CCC1(C(=O)OC)N2` (stereo not drawn), the GI50 in the experiment with IGROV-1, in the experiment on Malme-3M, with SK-MEL-28, in the experiment on K562, with SK-MEL-5 and with SK-MEL-2 was > 100 µM (inactive) throughout. The GI50 in the experiment with SNB-19 was > 100 µM (inactive); in the experiment on HCT-15, over 100 µM; in the experiment with UACC-62, > 100 µM (inactive); with A549, > 100 µM (inactive); in the experiment with COLO 205 it was > 100 µM (inactive); in the experiment on SF-268, > 100 µM (inactive). Besides, the GI50 in the experiment with UO-31 is > 100 µM (inactive).

`COc1ccc(C2C(C(=O)O)=C(COC(C)=O)Oc3cc4c(cc32)OCO4)c(OC)c1` (stereo not drawn): the GI50 in the experiment on IGROV-1, with SN12C, in the experiment with Malme-3M, in the experiment with CCRF-CEM, in the experiment with SK-MEL-28 and in the experiment on K562 was > 100 µM (inactive) throughout. The GI50 with ACHN was > 100 µM (inactive); in the experiment with SK-MEL-5, > 100 µM (inactive); with SK-MEL-2, > 100 µM (inactive); in the experiment with SNB-19, > 100 µM (inactive); in the experiment with HCT-15, over 100 µM; in the experiment on UACC-62 it was > 100 µM (inactive). Further, the GI50 in the experiment with A549, in the experiment with COLO 205 and in the experiment on UO-31 was > 100 µM (inactive) throughout.

Turning to `Nc1ccc(C(=O)CC2(O)C(=O)Nc3c(Cl)cc(Cl)cc32)cc1` (stereo not drawn), the GI50 with SN12C is > 100 µM (inactive); with Malme-3M, > 100 µM (inactive); in the experiment with CCRF-CEM it was 16.4 µM (inactive); with SK-MEL-28, > 100 µM (inactive); in the experiment with K562, 40.1 µM (inactive); in the experiment on ACHN, 94.8 µM (inactive). Besides, the GI50 in the experiment on SK-MEL-2 was > 100 µM (inactive); in the experiment on SNB-19, > 100 µM (inactive); with HCT-15 it was 69.7 µM; with A549, > 100 µM (inactive); in the experiment on COLO 205, > 100 µM (inactive); in the experiment with SF-268, > 100 µM (inactive). The GI50 in the experiment on UO-31 is > 100 µM (inactive).

In the case of `COC(=O)C(C(=O)C(=O)Nc1ccc(C)cc1C)c1csc(-n2nc(-c3ccccc3)cc2-c2ccccc2)n1` (stereo not drawn), the GI50 in the experiment with IGROV-1 was > 100 µM (inactive); in the experiment on SN12C, > 100 µM (inactive); in the experiment on Malme-3M it was > 100 µM (inactive); in the experiment with CCRF-CEM, 83.2 µM (inactive); with K562, 93.5 µM (inactive); with ACHN, 53.5 µM (inactive). Moreover, the GI50 was > 100 µM (inactive) in the experiment on SNB-19; 52.1 µM with HCT-15; 61.7 µM (inactive) in the experiment with UACC-62; > 100 µM (inactive) in the experiment with A549; > 100 µM (inactive) in the experiment with COLO 205; 86.7 µM (inactive) with SF-268. For the same molecule, the GI50 in the experiment with UO-31 was 45.6 µM (inactive).

For `O=C1C(c2ccc([N+](=O)[O-])cc2)=[N+]([O-])c2ccc([N+](=O)[O-])cc21`, the GI50 in the experiment with IGROV-1 was 26.4 µM (inactive); in the experiment on CCRF-CEM it was 24.2 µM (inactive); with SK-MEL-28 it was > 100 µM (inactive); in the experiment with K562 it was 27.7 µM (inactive); in the experiment with ACHN, 32.2 µM (inactive); with SK-MEL-5, 30.8 µM (inactive). The GI50 in the experiment on SNB-19 is 98.6 µM (inactive); in the experiment on UACC-62 it was 21 µM (inactive); in the experiment on A549 it was 37.8 µM (inactive); in the experiment on COLO 205, 35.3 µM (inactive); in the experiment with SF-268, 40.8 µM (inactive); in the experiment with UO-31, 48.9 µM (inactive).
